As usually defined, the Kd is the equilibrium constant for the complex coming apart.

In data set [1] the target is Opioid Receptor (mu opioid receptor peptides) (Homo sapiens, UniProt P35372). Description: Overall pattern of binding: Opioid Receptor peptides. The protocol:
(§1) The method used was ultraviolet spectrophotometry, which is a sensitive way to test for the binding of pairs of molecules. Binding data obtained using this method have previously been validated by direct comparison to results of nuclear magnetic resonance, circular dichroism, capillary electrophoresis, and other physicochemical methods (e.g., [51, 87, 88, 89, 90]).
(§2) For each individual test, the concentration of the stock solution was calculated and then diluted to a 10 µM solution.
(§3) Thus, the final concentration of receptor peptide in each well varied from 0.5 mM to 0.05 pM while the other compound was held fixed at 5 µM.
The method of calculating binding constants was to measure the absorbance (minus the absorbance of the buffer) of 100 µL of each compound by itself diluted by 100 µL of buffer at a given wavelength (in this case at 200 nm) at the range of concentrations utilized in the experiments. The average of the resulting values is calculated. (If the experiments are run properly, there is very little variance—a couple of percent. If there was more variance than that, the experiment was re-run.) An “expected” value is calculated following Beer’s law, by adding the absorbances of each pair of compounds (peptide plus small molecule). The actual chemical combinations of these molecules was then run under identical conditions.
The difference between the “expected” and actual values was determined at each concentration of the varied compound. This difference was then plotted against the concentration of the varied compound. […] The binding constant was approximated by using the inflection point of the binding curve (i.e., the point at which the dissociation and association of the two molecules was equal). […] All data were analyzed using Microsoft Excel.
Because the resulting absorbances are the differences between the independently measured absorbances, it is not possible to calculate error bars or to perform statistics on the resulting values.

Data set [2] deals with Adrenergic Receptor (beta 2 adrenergic receptor peptides) (Homo sapiens, UniProt P07550). Description: Overall pattern of binding: Adrenergic Receptor peptides. How it is done:
as §1, §2, §3
(§4) The method of calculating binding constants was to measure the absorbance (minus the absorbance of the buffer) of 100 µL of each compound by itself diluted by 100 µL of buffer at a given wavelength (in this case at 200 nm) at the range of concentrations utilized in the experiments. The average of the resulting values is calculated. (If the experiments are run properly, there is very little variance—a couple of percent. If there was more variance than that, the experiment was re-run.) An “expected” value is calculated following Beer’s law, by adding the absorbances of each pair of compounds (peptide plus small molecule). […]
(§5) The difference between the “expected” and actual values was determined at each concentration of the varied compound. […]

Data set [3] deals with T1, histamine 1 receptor peptide HIHR 177–183 RDKCETD (Homo sapiens, UniProt P35367, E177R).
T1 construct: HIHR 177–183 RDKCETD; purchased RS Synthesis (Louisville, KY, USA); host or cells: chemical synthesis
Description: biochemical. The data set is classed as binding. The conditions noted are these: UV spectrophotometry; read-out: Kd (µM) HIHR 177–183 RDKCETD.

The next data set relates to receptor peptides tested. Description: UV spectrophotometry binding to all peptides tested (summary).
Data set [4] deals with T2, histamine 1 receptor peptide H1HR 105–108 SMDY (Homo sapiens, UniProt P35367).
T2 construct: H1HR 105–108 SMDY; purchased RS Synthesis (Louisville, KY, USA); host or cells: chemical synthesis
The data set can be described thus: biochemical. The data set is classed as binding. The conditions noted are these: UV spectrophotometry; single value, or first (higher-affinity) value of a cell a/b; read-out: Kd (µM) H1HR 105–108 SMDY.

Data set [5] addresses Dopamine Receptor (dopamine 1 receptor peptides) (Homo sapiens, UniProt P21728). Description: Overall pattern of binding: Dopamine Receptor peptides. How it is done: as §1, §2, §3, §4, §5
For data set [6], the target named is Histamine Receptor (histamine 1 receptor peptides) (Homo sapiens, UniProt P35367). The data set can be described thus: biochemical. The data set is classed as binding. The note with it: first symbol of the cell.
Data set [7] concerns the target T3, histamine 1 receptor peptide H1HR 77–87 GAVVMPMNILYL (Homo sapiens, UniProt P35367).
T3 construct: H1HR 77–87 GAVVMPMNILYL; purchased RS Synthesis (Louisville, KY, USA); host or cells: chemical synthesis
Description: biochemical. The format is binding. The conditions noted are these: UV spectrophotometry; single value, or first (higher-affinity) value of a cell a/b; read-out: Kd (µM) H1HR 77–87 […].

Data set [8] addresses reduced glutathione (Glut RED, ECG). The data set can be described thus: UV spectrophotometry binding to reduced glutathione. The note with it: UV spectrophotometry at 200 nm, pH 7.00 phosphate-buffered saline, ca. 24 °C.
Data set [9] deals with T4, beta 2 adrenergic receptor peptide B2AR 183–185 NCY (Homo sapiens, UniProt P07550).
T4 construct: B2AR 183–185 NCY; purchased RS Synthesis (Louisville, KY, USA); host or cells: chemical synthesis
Description: biochemical. The conditions noted are these: for binding to adrenergic receptor peptide 183–185 (NCY), in words: Figure 4; for Kd: UV spectrophotometry, read-out: Kd (µM) B2AR 183–185 NCY. The format is binding.

In data set [10] the target is oxidized glutathione (Glut OX, ECG-ECG). The data set can be described thus: UV spectrophotometry binding to oxidized glutathione. The note with it: UV spectrophotometry; single value, or first (higher-affinity) value of a cell a/b; read-out: Kd (µM) Glut OX ECG-ECG.
For the next data set, the system named is Glutathione. Description: Overall pattern of binding: Glutathione (reduced and oxidized).
For data set [11] the following is noted: intrathecal delivery; cited from earlier work.
In data set [12] the target is dopamine 1 receptor peptide D1DR 96–98 FCN (Homo sapiens, UniProt P21728). The data set can be described thus: biochemical.
In data set [13] the target is T5, mu opioid receptor peptide Mu OPR 211–226 (Homo sapiens, UniProt P35372).
T5 construct: Mu OPR 211–226; purchased RS Synthesis (Louisville, KY, USA); host or cells: chemical synthesis
The data set can be described thus: biochemical. The format is binding. The note with it: UV spectrophotometry; single value, or first (higher-affinity) value of a cell a/b.

In data set [14] the target is T6, mu opioid receptor peptide Mu OPR 111–122 (Homo sapiens, UniProt P35372).
T6 construct: Mu OPR 111–122; purchased RS Synthesis (Louisville, KY, USA); host or cells: chemical synthesis
The data set can be described thus: biochemical. The format is binding. The conditions noted are these: UV spectrophotometry; single value, or first (higher-affinity) value of a cell a/b.

Data set [15] addresses T7, beta 2 adrenergic receptor peptide B2AR 97–103 KMWTFGN (Homo sapiens, UniProt P07550).
T7 construct: B2AR 97–103 KMWTFGN; purchased RS Synthesis (Louisville, KY, USA); host or cells: chemical synthesis
Description: biochemical. The format is binding.

The target in data set [16] is T8, mu opioid receptor peptide Mu OPR 121–131 (Homo sapiens, UniProt P35372).
T8 construct: Mu OPR 121–131; purchased RS Synthesis (Louisville, KY, USA); host or cells: chemical synthesis
The data set can be described thus: biochemical. The format is binding. The conditions noted are these: UV spectrophotometry; single value, or first (higher-affinity) value of a cell a/b.

Data set [17] addresses T9, beta 2 adrenergic receptor peptide B2AR 105–108 WCEF (Homo sapiens, UniProt P07550).
T9 construct: B2AR 105–108 WCEF; purchased RS Synthesis (Louisville, KY, USA); host or cells: chemical synthesis
The data set can be described thus: biochemical. The data set is classed as binding.

Data set [18] deals with T10, insulin receptor peptide INSR 392–404 (Homo sapiens, UniProt P06213).
T10 construct: purchased RS Synthesis (Louisville, KY, USA); host or cells: chemical synthesis
The data set can be described thus: biochemical. The data set is classed as binding. The conditions noted are these: UV spectrophotometry.

Data set [19] concerns the target T11, insulin receptor peptide INSR 157–166 (Homo sapiens, UniProt P06213).
T11 construct: INSR 157–166; purchased RS Synthesis (Louisville, KY, USA); host or cells: chemical synthesis
The data set can be described thus: biochemical. The data set is classed as binding. The conditions noted are these: UV spectrophotometry; read-out: Kd (µM) INSR 157–166.

Data set [20] deals with T12, mu opioid receptor peptide Mu OPR 38–51 (Homo sapiens, UniProt P35372).
T12 construct: Mu OPR 38–51; purchased RS Synthesis (Louisville, KY, USA); host or cells: chemical synthesis
Description: biochemical. The format is binding. The note with it: UV spectrophotometry; single value, or first (higher-affinity) value of a cell a/b; read-out: Kd (µM) Mu OPR 38–51.

The target in data set [21] is T13, mu opioid receptor peptide Mu OPR 132–143 (Homo sapiens, UniProt P35372).
T13 construct: Mu OPR 132–143; purchased RS Synthesis (Louisville, KY, USA); host or cells: chemical synthesis
The data set can be described thus: biochemical. The data set is classed as binding. The conditions noted are these: UV spectrophotometry; single value, or first (higher-affinity) value of a cell a/b.

Data set [22] has as its system glutathione S-transferase A-5 and CYP3A2 expression in rat liver. The arrangement: method as in PMID 20487198. The note with it: exposure to opioid; cited from earlier work.
[23] abbreviates: UV spectrophotometry, read-out: Kd (µM) B2AR 97–103 KMWTFGN.
Setting [24] is: UV spectrophotometry, read-out: Kd (µM) B2AR 105–108 WCEF.

Structures are written as SMILES. Where a name gives a salt, the structure may show the parent alone. Read-outs that look alike come from different tables or passages of the source.

Opioid Receptor (mu opioid receptor peptides), sequence (P35372 with tags, fused parts or gaps): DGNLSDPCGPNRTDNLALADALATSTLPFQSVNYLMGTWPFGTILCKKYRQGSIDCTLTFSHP
Dopamine Receptor (dopamine 1 receptor peptides), sequence (P21728 with tags, fused parts or gaps): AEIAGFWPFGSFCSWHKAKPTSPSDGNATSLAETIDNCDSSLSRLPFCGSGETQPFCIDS
Histamine Receptor (histamine 1 receptor peptides), sequence (P35367 with tags, fused parts or gaps): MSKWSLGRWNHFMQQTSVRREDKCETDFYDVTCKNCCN
Adrenergic Receptor (beta 2 adrenergic receptor peptides), sequence (P07550 with tags, fused parts or gaps): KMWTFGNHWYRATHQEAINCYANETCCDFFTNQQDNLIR

For `CC(=O)OCC[N+](C)(C)C` [Acetylcholine, acetylcholine], the Kd in data set [1] (first symbol of the cell) was more than 60 µM; in [2] (first symbol of the cell), more than 60 µM; in data set [3], more than 1000 µM; in data set [4] it was more than 1000 µM; in data set [5] (first symbol of the cell), more than 60 µM; in [6], more than 60 µM. Besides, the Kd in [7], in data set [8] and in data set [10] was more than 1000 µM each time. For the same compound, in the data set on receptor peptides tested, the “observable affinity of the peptides tested, in words” value was “none of the peptides tested had observable affinity”. In data set [9], the “binding to adrenergic receptor peptide 183–185 (NCY), in words” value (shortened to “binding … (NCY), in words”) is listed as “No binding was observed”.

Turning to `OC[C@H]1OC(O)[C@H](O)[C@@H](O)[C@@H]1O` (stereo partly shown) [Glucose, glucose], the Kd in data set [1] was more than 60 µM; in data set [2], more than 60 µM; in [3] it was more than 1000 µM; in [5] it was more than 60 µM; in data set [6], more than 60 µM; in [8] it was more than 1000 µM. In data set [10], the Kd was more than 1000 µM. In the data set on Glutathione, the “binding to either reduced or oxidized glutathione, in words” value is “do not bind appreciably”. Besides, the “observable affinity of the peptides tested, in words” value with receptor peptides tested was “none of the peptides tested had observable affinity”. The “binding … (NCY), in words” value in data set [9] was “No binding was observed”.

Take `CN1CC[C@]23c4c5ccc(O)c4O[C@H]2[C@@H](O)C=C[C@H]3[C@H]1C5` [Morphine, morphine sulfate]: the “transient cerebrospinal fluid concentrations” value in data set [11] is listed as “approximately 25 µM”. This compound registered a Kd in [12] of 25 µM.

Consider `N[C@@H](Cc1ccccc1)C(=O)O` [Phenylalanine, phenylalanine], for which the Kd was 200 µM in data set [13]; more than 1000 µM in data set [14]; 50 µM in data set [3]; more than 1000 µM in data set [15] (setting [23]); more than 1000 µM in data set [16]; 55 µM in data set [17] (setting [24]). The Kd in [4] is 60 µM; in [18] it was more than 1000 µM; in [19] it was 90 µM; in data set [20] it was 50 µM; in [7] it was more than 1000 µM; in [8] it was more than 1000 µM. Further, the Kd is 80 µM in data set [21], 30 µM in [9], 90 µM in data set [10] and 25 µM in [12]. The “binding … (NCY), in words” value in data set [9] was “Significant binding”.

`NCCc1c[nH]c2ccc(O)cc12` [Serotonin, serotonin]: the Kd is more than 60 µM in [1] (first symbol of the cell); 60 µM in data set [3]; 430 µM in data set [15]; 45 µM in data set [17]; 120 µM in [4]; 50 µM in [7]. The results for the Kd in data set [8] and in [10] were 70 µM and more than 1000 µM, respectively.

For `N[C@@H](Cc1ccc(O)cc1)C(=O)O` [Tyrosine, tyrosine], the Kd in data set [13] was 160 µM; in data set [14] it was 700 µM; in [3], 50 µM; in [15] (setting [23]) it was more than 1000 µM; in [16], more than 1000 µM; in data set [17] (setting [24]) it was 50 µM. The Kd in data set [4] is 50 µM; in [18], more than 1000 µM; in [19] it was 90 µM; in [20], 85 µM; in data set [7], more than 1000 µM; in [8] it was 130 µM. Further, the Kd in data set [21] is 60 µM; in data set [9] it was 35 µM; in [10], 130 µM; in [12], 22 µM. Also, the “binding … (NCY), in words” value in [9] is given as “Significant binding”.

`COc1ccc2c3c1O[C@H]1C(=O)CC[C@@]4(O)[C@@H](C2)N(C)CC[C@]314` [oxycodone]: in data set [22], the “expression in rat liver of glutathione S-transferase A-5” value is listed as “greater than six-fold increase” and the “expression of the cytochrome enzyme CYP3A2” value is “decreased seven-fold”.

The values are drawn from publication PMC7504417 (International Journal of Molecular Sciences, 2020).
